# Measured values: patent US20230287021A1, “COMPOUNDS, COMPOSITIONS AND METHODS FOR STABILIZING TRANSTHYRETIN AND INHIBITING TRANSTHYRETIN MISFOLDING” (Protego Biopharma, Inc., priority 2020, published 2023)
# Assay: In vitro rat plasma stability assay, formation of tafamidis
# Type: in vitro ADME
# Conditions: 37° C., 2 µM test compound
# Procedure: A stability assay in plasma (rat or human) was used to evaluate the ability of a compound provided herein to convert to an active TTR stabilizer. The test compound was added to plasma and incubated at 37° C. in a water bath at a concentration of 2 µM. At each time point (0, 10, 30, 60 and 120 min or 0, 60, 120, 180 and 240 min), stop solution (tolbutamide plus labetalol) was added to precipitate protein and mixed thoroughly. After centrifugation, an aliquot of supernatant was analyzed by LC-MS/MS. The percentage of formation of active agent was calculated at each time point.
row,Compound,Formation of tafamidis at 120 min
1,"CC(C)(C)OC(=O)N[C@@H](Cc1cccc(OC(=O)c2ccc3nc(-c4cc(Cl)cc(Cl)c4)oc3c2)c1)C(=O)O [Compound 20, (S)-2-((tert-butoxycarbonyl)amino)-3-(3-((2-(3,5-dichlorophenyl)benzo [d]oxazole-6-carbonyl)oxy)phenyl)propanoic acid]",B (B is ≥25 to <50%)
2,CC(C)(C)OC(=O)N[C@H](Cc1ccc(OC(=O)c2ccc3nc(-c4cc(Cl)cc(Cl)c4)oc3c2)cc1)C(=O)O [Compound 70],B (B is ≥25 to <50%)
3,"CC(C)(C)OC(=O)N1CCC(OC(=O)c2ccc3nc(-c4cc(Cl)cc(Cl)c4)oc3c2)C1 (stereo not drawn) [Compound 16, 1-(tert-butoxycarbonyl)pyrrolidin-3-yl 2-(3,5-dichlorophenyl) benzo[d]oxazole-6-carboxylate]",B (B is ≥25 to <50%)
4,"CC(=O)OCC(COC(C)=O)OC(=O)c1ccc2nc(-c3cc(Cl)cc(Cl)c3)oc2c1 [Compound 2, 2-(2-(3,5-Dichlorophenyl)benzo[d]oxazole-6-carbonyloxy)propane-1,3-diyl diacetate]",B (B is ≥25 to <50%)
5,"CC(C)(C)OC(=O)N[C@@H](Cc1cccc(OC(=O)c2ccc3nc(-c4cc(Cl)cc(Cl)c4)oc3c2)c1)C(=O)OCc1ccccc1 [Compound 19, (S)-3-(3-(benzyloxy)-2-((tert-butoxycarbonyl)amino)-3-oxopropyl) phenyl 2-(3,5-dichlorophenyl)benzo[d]oxazole-6-carboxylate]",B (B is ≥25 to <50%)
6,CC(C)(C)OC(=O)N[C@H](Cc1ccc(OC(=O)c2ccc3nc(-c4cc(Cl)cc(Cl)c4)oc3c2)cc1)C(=O)OCc1ccccc1 [Compound 69],A (A is <25%)
7,CC(C)(C)OC(=O)N[C@H](Cc1cccc(OC(=O)c2ccc3nc(-c4cc(Cl)cc(Cl)c4)oc3c2)c1)C(=O)OCc1ccccc1 [Compound 63],B (B is ≥25 to <50%)
8,"CN1C[C@@H](O)[C@H](OC(=O)c2ccc3nc(-c4cc(Cl)cc(Cl)c4)oc3c2)C1 [Compound 56, (3R,4R)-4-hydroxy-1-methylpyrrolidin-3-yl 2-(3,5-dichlorophenyl)benzo[d] oxazole-6-carboxylate]",D (D is ≥75%)

# Other lines, results leading:
row,Formation of tafamidis at 120 min,Compound
1,C (C is ≥50 to <75%),"C[C@@H](COC(=O)c1ccc2nc(-c3cc(Cl)cc(Cl)c3)oc2c1)N(C)C [Compound 44, (S)-2-(dimethylamino)propyl 2-(3,5-dichlorophenyl)benzo[d] oxazole-6-carboxylate]"
2,A (A is <25%),"O=C(NCCCO)c1ccc2nc(-c3cc(Cl)cc(Cl)c3)oc2c1 [Compound 68, 2-(3,5-dichlorophenyl)-N-(3-hydroxypropyl)benzo[d]oxazole-6-carboxamide]"
3,D (D is ≥75%),"CN(C)CCCCCOC(=O)c1ccc2nc(-c3cc(Cl)cc(Cl)c3)oc2c1 [Compound 51, 5-(dimethylamino)pentyl 2-(3,5-dichlorophenyl)benzo[d] oxazole-6-carboxylate]"
4,A (A is <25%),"C[N+](C)(C)CCOC(=O)c1ccc2nc(-c3cc(Cl)cc(Cl)c3)oc2c1.[Cl-] [Compound 29, 2-((2-(3,5-dichlorophenyl)benzo[d]oxazole-6-carbonyl)oxy)-N,N,N-trimethylethanaminium chloride]"
5,D (D is ≥75%),"CN(C)C(CO)COC(=O)c1ccc2nc(-c3cc(Cl)cc(Cl)c3)oc2c1 (stereo not drawn) [Compound 55, 2-(dimethylamino)-3-hydroxypropyl 2-(3,5-dichlorophenyl) benzo [d]oxazole-6-carboxylate]"
6,A (A is <25%),"NCCOC(=O)c1ccc2nc(-c3cc(Cl)cc(Cl)c3)oc2c1 [Compound 15, 2-aminoethyl 2-(3,5-dichlorophenyl)benzo[d]oxazole-6-carboxylate]"
7,D (D is ≥75%),O=C(OCCCN1CCS(=O)(=O)CC1)c1ccc2nc(-c3cc(Cl)cc(Cl)c3)oc2c1 [Compound 84]
